Reference: the METLIN SMRT retention time set (Domingo-Almenara et al. 2019)

Test: gradient 5% acetonitrile 3 min, to 50% in 2 min, to 85% in 15 min, held 3 min, 100 µL/min
Details: column: Zorbax Extend-C18 2.1 x 50 mm; eluents: water / acetonitrile, 0.1% formic acid
How it was run: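 In both positive and negative ionization mode, a quadrupole time-of-flight mass spectrometer coupled to HPLC analyzed pure standards run in mixtures of ~100 molecules. The Zorbax Extend-C18 column (2.1 × 50 mm, 1.8 μm) was operated at 100 μL/min with water and acetonitrile, each containing 0.1% formic acid. The dead volume was 40 μL and the dwell volume 900 μL. Retention time came from adduct peaks that were computationally picked and individually inspected by hand.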

| Compound | RP-LC retention time [s] |
| --- | --- |
| O=C(NCCOc1cccc(C(F)(F)F)c1)c1ccc([N+](=O)[O-])cc1 | 913 |
| O=C(Nc1cccc(Br)c1)N1CCc2nc(-c3ccc(Cl)cc3)ncc2C1 | 1190 |
| Cc1nc2c(ccc3nc(NC(=O)c4cccc(F)c4)sc32)s1 | 893 |
| O=C(N[C@H]1C[C@@H]2C[C@H]1CN2S(=O)(=O)c1ccc2c(c1)OCCO2)c1ccccc1 | 803 |
| CSc1cccc(NC(=O)CN2CCC3(CC2)N=C(c2ccc(Cl)cc2)C(=O)N3)c1 | 627 |
| CC1(c2noc(C3CC3)n2)CCN(C(=O)CCc2cc(Cl)no2)CC1 | 853 |
| Cc1ccc(CNC(=O)c2ccc3c(c2)ncn3CCN2CCCC2)cc1 | 585 |
| Cc1ccc(CNC(=O)Cn2nc(N3CCCC3)c3ccccc3c2=O)cc1 | 908 |
| Cc1nnc(-c2ccc3ccn(CC(=O)N4CCN(c5ncccn5)CC4)c3c2)o1 | 692 |
| Cc1oc2cc(OCC#N)ccc2c(=O)c1-c1ccc(Cl)cc1 | 926 |
| CCNC(=O)c1cc(N(C)C)nc2c(Cl)cccc12 | 730 |
| Cc1ccc(S(=O)(=O)N2CCC(C(=O)NCc3csc(-c4cccs4)n3)CC2)cc1 | 910 |
| COC(=O)c1ccccc1NC(=O)N1CCN(c2nc3ccccc3n2C)CC1 | 680 |
| CC(C)CN1Cc2ccccc2-n2ccnc2C12CCN(C(=O)c1ccc(F)cc1)CC2 | 739 |
| O=C(NCc1nc(-c2ccc3c(c2)Sc2ccccc2C(=O)N3C2CC2)no1)c1cccs1 | 928 |
| Cn1cc(-c2cc3n(n2)CCC(=O)N3CC(=O)Nc2ccc(Cl)cc2)c2ccccc21 | 902 |
| CCc1noc(NC(C)=O)c1-c1ccc(C)c(S(=O)(=O)N2CCCC2)c1 | 801 |
| COc1ccc(N2CC(C(=O)N3CCC(c4noc(-c5ccccc5)n4)CC3)CC2=O)cc1 (stereo not given) | 855 |

| Compound | RP-LC retention time [s] |
| --- | --- |
| CSc1cccc(NC(=O)N2CCN(c3cnn4c(C5CC5)nnc4c3)CC2)c1 | 694 |
| Cc1ccc(S(=O)(=O)CCc2noc(C(=O)NCCc3ccc(S(N)(=O)=O)cc3)n2)cc1 | 724 |
| Cc1cc(NC(=O)Cn2ccn3nc(-c4ccc(F)cc4)c(CO)c3c2=O)n[nH]1 | 666 |
| Cc1ccccc1CC(=O)NC1CCN(c2ccccc2)C1=O (stereo not given) | 811 |
| COc1ccc(C(=O)N2CCN(c3cc(C)n4cnnc4n3)CC2)cn1 | 571 |
| COc1ccc(NC(=O)Nc2cccc(-c3cn4cccnc4n3)c2)cc1 | 687 |
| COc1ccc(-n2nc(C(=O)N3CCC(C(N)=O)CC3)c(=O)cc2OC)cc1OC | 588 |
| O=C(c1cnn(-c2cccc(F)c2)c1-n1cccc1)N1CCN(c2ccccn2)CC1 | 664 |
| Cn1cc(CCN2CCC(C(=O)NCc3ccc(F)cc3)CC2)c2cccnc21 | 595 |
| COc1ccccc1OCC(=O)NCC1(c2cccs2)CCCC1 | 557 |
| COc1ccc(-c2noc(CN3N=NC4C(=O)N(c5ccc6c(c5)CCC6)C(=O)C43)n2)c(OC)c1 (stereo not given) | 959 |
| COc1ccccc1CNc1nccc(-n2nc(C)cc2C)n1 | 840 |
| Cc1ccc(NC(=O)N2CCC(C(C)C(=O)Nc3ccc(Cl)cc3)CC2)cc1 (stereo not given) | 951 |
| Cc1cccc(NC(=O)CN2c3ccccc3NC3=C(C(=O)CCC3)C2c2ccco2)c1C (stereo not given) | 851 |
| Cc1nc(-c2ccccc2Cl)sc1C(=O)N1CCN(c2ccccn2)CC1 | 661 |
| O=C(Cn1cnc2nc(N3CCC(C(=O)NC4CC4)CC3)sc2c1=O)Nc1cccc(F)c1 | 655 |
| CCn1cnc(S(=O)(=O)N2CCCC(C(=O)Nc3cccc(CN4CCCC4)c3)C2)c1 (stereo not given) | 607 |
